Reference: ChEMBL document CHEMBL1144167, “Development and biological evaluation of C(60) fulleropyrrolidine-thalidomide dyad as a new anti-inflammation agent” (2008)
Activity calls are given as the source filed them. No cut-off for these calls is given here.

Key:
RAW264.7 [1] = assay: Antiinflammatory activity in mouse LPS-activated RAW264.7 cells assessed as ROS scavenging activity at 10 uM pretreated for 3 hrs before LPS challenge measured by decrease in fluorescent intensity by confocal microscopy; type: functional, cell-based
RAW264.7 [2] = assay: Reduction in pERK1/2 expression in LPS-activated mouse RAW264.7 cells at 10 uM pretreated for 3 hrs before LPS challenge assessed after 24 hrs by Western blot; type: functional, cell-based
RAW264.7 [3] = assay: Antiinflammatory activity in mouse LPS-activated RAW264.7 cells assessed as mean fluorescent intensity of ROS scavenging activity at 10 uM pretreated for 3 hrs before LPS challenge by FACS; type: functional
RAW264.7 [4] = assay: Reduction in iNOS expression in LPS-activated mouse RAW264.7 cells at 10 uM pretreated for 3 hrs before LPS challenge assessed after 24 hrs by Western blot; type: functional, cell-based
RAW264.7 [5] = assay: Antiinflammatory activity in mouse RAW264.7 cells assessed as inhibition of LPS-induced nitric oxide production at 10 uM pretreated for 3 hrs before LPS challenge assessed after 24 hrs by griess assay relative to control; type: functional; design: scale not given: the % may be the effect or the level left
RAW264.7 [6] = assay: Antiinflammatory activity in mouse RAW264.7 cells assessed as inhibition of LPS-induced nitric oxide production pretreated for 3 hrs before LPS challenge assessed after 24 hrs by griess assay; type: functional, cell-based
RAW264.7 [7] = assay: Reduction in iNOS expression in LPS-activated mouse RAW264.7 cells at 1 uM pretreated for 3 hrs before LPS challenge assessed after 24 hrs by Western blot; type: functional, cell-based
RAW264.7 [8] = assay: Antiinflammatory activity in mouse RAW264.7 cells assessed as inhibition of LPS-induced TNFalpha synthesis at 10 uM pretreated for 3 hrs before LPS challenge assessed after 24 hrs by ELISA relative to control; type: functional; design: scale not given: the % may be the effect or the level left

SMILES: O=C1CCC(N2C(=O)c3ccccc3C2=O)C(=O)N1 (stereo not drawn) [THALIDOMIDE]
- Activity (RAW264.7 [1]): Active
- Activity (RAW264.7 [2]): Active
- Flu intensity (RAW264.7 [3]): 468.37
- Activity (RAW264.7 [4]): Active
- Activity (RAW264.7 [5]): 44.1%
- Activity (RAW264.7 [6]): Dose-dependent effect
- Activity (RAW264.7 [7]): Active
- Activity (RAW264.7 [8]): 55.5%
